{
  "source": "paper PMC10644342",
  "about": "“Improved Antibacterial Activity of 1,3,4-Oxadiazole-Based Compounds That Restrict Staphylococcus aureus Growth Independent of LtaS Function” (ACS Infectious Diseases, 2023)",
  "key": {"S. aureus": {"tested_on": "S. aureus", "assay": "Checkerboard MIC analysis with antistaphylococcal antibiotics (FIC index)", "type": "cell-based", "conditions": "lowest possible value", "description": "Antibiotic combination 1771 Compound 13\nFigure S1. Checkerboard analysis of 1771 and compound 13 in combination with clinically relevant antibiotics. Checkerboard analysis was repeated twice for each antibiotic combination, and the mean bacterial growth (OD 600nm) plotted as a heat map with 1771/compound 13 concentration of the y-axis and test antibiotic concentration on the x axis.\nFIC indexes were calculated for each combination and the lowest possible value presented. […]\nSupplementary Materials and Methods\nSynergistic activity with clinically relevant antibiotics\nThe synergistic ability of 1771 and 13 was achieved using the chequerboard micro-broth dilution method. Antibiotic partners tested included: oxacillin, daptomycin, vancomycin, gentamicin, and linezolid with starting concentrations of 256 µg/ml, 8 µg/ml, 8 µg/ml, 4 µg/ml, and 8 µg/ml respectively. Overnight cultures were sub-cultured 1:200 in fresh MHB and grown to optical density of OD600nm of 0.5-0.6 and prepared according to the MIC analysis. Following an 18 h incubation at 37 °C the sum of the fractional inhibitory […]\nusing the equation ΣFIC = FICA +FICB = (MICA in combination with B/MICA) + (MICB in combination with A/MICB). The resulting value was interpreted according to the following rules: synergistic (FIC ≤ 0.5), additive (FIC >0.5, <1) or indifferent (FIC ≥ 1 <4). […]"}, "[1]": {"tested_on": "HepG2 human liver cancer cells", "assay": "HepG2 liver cell toxicity assay (MTT)", "type": "cell-based", "conditions": "for IC50: Homo sapiens, 24 h incubation, MTT, concentration responsible for 50% HepG2 cell death", "description": "HepG2 human liver cancer cells (ECACC: Cat no. 85011430) were grown in Dulbecco’s Modified Eagle’s Medium (DMEM; with 4.5 g/L glucose) supplemented with 10% (v/v) fetal bovine serum, 1% (v/v) minimal essential media, and 0.2% (v/v) penicillin/streptomycin/L-glutamine solution. Cells were then seeded at a concentration of 10,000 cells per well and allowed to attach and grow for 18 h. Following this, the medium was aspirated away and replaced with a medium containing a range of concentrations of 1771 and compound 13, and the cells were grown for a further 24 h. After this, cell viability was assessed using the MTT (3-[4,5-dimethylthiazol-2-yl]-2,5-diphenyltetrazolium bromide) assay. 1771 or 13 containing growth media was aspirated away and replaced with 100 μL of 1 mg/mL MTT (in growth media) and incubated for 50 min at 37 °C. Subsequently, this solution was removed, and 150 μL of isopropanol was added to the cells and allowed to incubate at RT with gentle rocking on an orbital shaker. Absorbance at abs595nm was recorded using a Sunrise plate reader, and the % cell viability was calculated compared to a no-compound control."}, "MRSA strain LAC [2]": {"tested_on": "MRSA strain LAC", "assay": "Time-kill kinetic analysis", "type": "cell-based, Staphylococcus aureus", "conditions": "for effect on growth of LAC: 1× MIC, 24 h, inoculum 5 × 10^5 cfu", "description": "Overnight cultures of MRSA strain LAC were subcultured 1:200 and grown to the exponential phase in fresh MHB. These cultures were subsequently diluted to give 500 μL of MHB containing 5 × 10^5 cfu. […] These suspensions were incubated for 24 h at 37 °C, with 50 μL of the suspension serially diluted 1:10 in 450 μL of phosphate buffered saline (PBS) and plated out on TSA at times 0, 1, 2, 4, 6, and 24 h for enumeration."}, "LTA": {"tested_on": "LTA", "assay": "LTA quantification by Western blot", "type": "cell-based, Staphylococcus aureus", "conditions": "strain LAC, 1× and 4× the MIC", "description": "Overnight cultures of S. aureus strains were diluted 1:200 in fresh TSB and grown to an optical density of OD600nm 0.3. […] Vancomycin and daptomycin at 1× and 4× MIC were also included as control antibiotics. Cells were then normalized to have 10 mL of OD600nm 0.6, pelleted at 4000 rpm, and resuspended in 300 μL of PBS containing 200 μg/mL lysostaphin. This suspension was then incubated at 37 °C for 45 min to allow digestion of the cell wall to occur. One hundred microlitres of 4× SDS sample buffer were then added, and the mixture was boiled at 95 °C for 20 min. The insoluble material was then removed by pelleting at 16,000 rpm for 10 min. The supernatant containing LTA was then subjected to SDS-PAGE on a 4–20% Tris-glycine gel (Bio-Rad). The gel was transferred onto a PVDF membrane using a Trans-Blot Turbo Transfer System (Bio-Rad). The membrane was blocked overnight in TBST containing 5% semi-skimmed milk before being incubated with a mouse anti-LTA antibody (Hycult; HM2048; 1:2000 dilution) followed by a goat antimouse-HRP secondary antibody (Proteintech; SA00001; 1:2000 dilution) before being visualized using an Amersham-ECL kit (Cytiva)."}, "[3]": {"tested_on": "S. epidermidis strain RP62A", "assay": "Biofilm prevention, crystal violet assay", "type": "cell-based, Staphylococcus epidermidis", "conditions": "for concentration causing a 50% reduction in biofilm formation: 24 h", "description": "An indication of the biofilm prevention capabilities of 1771 and its derivatives 9–14 was achieved through the application of the crystal violet assay. S. aureus strain SH1000 and S. epidermidis strain RP62A were used, as they are strong biofilm formers. Overnight cultures were diluted 1:200 in fresh TSB containing 0.5% glucose (TSB-G), and 100 μL was added to individual wells in a 96-well microtiter plate. One hundred microliters of 1771 and 9–14 were diluted in TSB-G and added to bacteria at a final concentration ranging from 256 to 0.25 μg/mL with subsequent incubation for 24 h at 37 °C in a static incubator. Following incubation, biofilms were washed four times with ddH2O before being stained with 150 μL of 0.1% crystal violet for 30 min at room temperature. Following a further four washes in ddH2O, wells were resuspended in 200 μL of 7% acetic acid. The absorbance intensity of the crystal violet was measured at abs595nm in a Sunrise plate reader. Biomass formed was measured as a percentage of the no-compound control."}, "MRSA strain LAC [4]": {"tested_on": "MRSA strain LAC", "assay": "Minimum bactericidal concentration", "type": "cell-based, Staphylococcus aureus", "conditions": "for classification bactericidal/bacteriostatic: time kill and MBC", "description": "For an antibiotic with an MBC ≤ 4×, the MIC was considered to be bactericidal, whereas with an MBC > 4×, the MIC was considered to be bacteriostatic.[24] […] Percentage survival was calculated according to the starting inoculum of 5 × 10^5 cfu at time 0 h."}},
  "data": [
    {"compound": "O=C(COC(=O)Cc1coc2ccc3ccccc3c12)Nc1nnc(-c2ccc(S(F)(F)(F)(F)F)cc2)o1", "note": "[Compound 13, 2-Oxo-2-((5-(4-(pentafluoro-l6-sulfaneyl)phenyl)-1,3,4-oxadiazol-2-yl)amino)ethyl 2-(Naphtho[2,1-b]furan-1-yl)acetate]", "values": [
      {"measurement": "FIC index", "setting": "S. aureus; combination with daptomycin", "result": 0.75},
      {"measurement": "FIC index", "setting": "S. aureus; combination with gentamicin", "result": 0.75},
      {"measurement": "FIC index", "setting": "S. aureus; combination with linezolid", "result": 0.515},
      {"measurement": "FIC index", "setting": "S. aureus; combination with oxacillin", "result": 0.75},
      {"measurement": "FIC index", "setting": "S. aureus; combination with vancomycin", "result": 1},
      {"measurement": "IC50", "setting": "[1]", "result": 27.3, "unit": "µg/mL"},
      {"measurement": "effect on growth of LAC", "setting": "MRSA strain LAC [2]", "result": "completely inhibited the growth"},
      {"measurement": "starting inoculum surviving the exposure", "setting": "MRSA strain LAC [2]; 4× MIC, LAC", "result": 1, "unit": "%"},
      {"measurement": "LTA signal by Western blot", "setting": "LTA", "result": "reduction in LTA abundance"},
      {"measurement": "biofilm prevention compared with 1771", "setting": "[3]", "result": "better than 1771"},
      {"measurement": "concentration causing a 50% reduction in biofilm formation", "setting": "[3]", "result": 0.25, "unit": "µg/mL"},
      {"measurement": "minimal bactericidal concentration (MBC)", "setting": "MRSA strain LAC [4]; 8 to 128 μg/mL (up to 256× MIC)", "result": "could not be elucidated"},
      {"measurement": "classification bactericidal/bacteriostatic", "setting": "MRSA strain LAC [4]", "result": "bacteriostatic"}
    ]},
    {"compound": "O=C(COC(=O)Cc1coc2ccc3ccccc3c12)Nc1nnc(-c2ccccc2)o1", "note": "[Compound 1771, 2-Oxo-2-((5-phenyl-1,3,4-oxadiazol-2-yl)amino)ethyl 2-(Naphtho[2,1-b]furan-1-yl)acetate, reference compound]", "values": [
      {"measurement": "FIC index", "setting": "S. aureus; combination with daptomycin", "result": 0.625},
      {"measurement": "FIC index", "setting": "S. aureus; combination with gentamicin", "result": 0.375},
      {"measurement": "FIC index", "setting": "S. aureus; combination with linezolid", "result": 1},
      {"measurement": "FIC index", "setting": "S. aureus; combination with oxacillin", "result": 0.75},
      {"measurement": "FIC index", "setting": "S. aureus; combination with vancomycin", "result": 1},
      {"measurement": "selectivity index (IC50/MIC50)", "setting": "[1]; HepG2 IC50 / S. aureus MIC50", "result": 3.08},
      {"measurement": "IC50", "setting": "[1]", "result": 24.7, "unit": "µg/mL"},
      {"measurement": "effect on growth of LAC", "setting": "MRSA strain LAC [2]", "result": "completely inhibited the growth"},
      {"measurement": "killing effect", "setting": "MRSA strain LAC [2]; 4× MIC, LAC", "result": "roughly 65%"},
      {"measurement": "LTA signal by Western blot", "setting": "LTA", "result": "reduction in LTA abundance"},
      {"measurement": "concentration causing a 50% reduction in biofilm formation", "setting": "[3]", "result": 8, "unit": "µg/mL"},
      {"measurement": "classification bactericidal/bacteriostatic", "setting": "MRSA strain LAC [4]", "result": "bacteriostatic"}
    ]}
  ]
}
